Measurements published in publication PMC9403717, “Ruthenium complexes show potent inhibition of AKR1C1, AKR1C2, and AKR1C3 enzymes and anti-proliferative action against chemoresistant ovarian cancer cell line” (Frontiers in Pharmacology, 2022).

How the values were obtained:
[1] = tested on: OVCAR-4 cells; assay: Cell proliferation assay (alamarBlue), OVCAR-4; assay type: cell-based, human; settings: for IC50: OVCAR-4, 48 h incubation
Method: The cell line COV362 (CVCL_2,420) was originally established from a high-grade ovarian serous adenocarcinoma from a metastatic site in the pleural effusion ([van den Berg-Bakker et al., 1993]) and was purchased from ECACC (ECACC 07071910) as p37 on 13 October 2017. The growth medium for COV362 cells was DMEM (D5546; Sigma–Aldrich GmbH), with 10% FBS (F9665; Sigma–Aldrich GmbH) and 2 mM L-glutamine (G7513; Sigma–Aldrich GmbH). COV362 cells in passages p37 + 12 to p37 + 17 were used in this study and seeded at a concentration of 3.5 cells/ml × 10^4 cells/ml for proliferation studies and at a concentration of 5.3 × 10^5/ml for migration studies. The cell line OVCAR-4 (CVCL_1,627) is a high-grade serous ovarian adenocarcinoma cell line established from a patient refractory to cisplatin ([Johnson et al., 1997]). The cell line was purchased from Merck on 19 March 2021. The growth medium for OVCAR-4 cells was RPMI-1640 (Sigma R5586) supplemented with 2 mM glutamine (G7513; Sigma–Aldrich GmbH), 10% FBS (F9665; Sigma–Aldrich GmbH), 0.25 μg/ml insulin (I9278; Sigma–Aldrich GmbH). OVCAR-4 cells in passages p+6 to p+15 were used in this study and seeded at a concentration of 6 cells/ml × 10^4 cells/ml. The control cell line HIO80 (CVCL_E274) was obtained from Andrew K. Godwin (University of Kansas Medical Center, Kansas, United States) on 20 October 2017 as p+72. It was originally established from ovarian surface epithelium ([Yang et al., 2004]). HIO80 cells were grown in RPMI medium (R5886, Sigma–Aldrich GmbH) supplemented with 10% FBS (F9665; Sigma–Aldrich GmbH), 2 mm L-glutamine (G7513; Sigma–Aldrich GmbH) and 6.6 µg/ml insulin (I9278; Sigma–Aldrich GmbH). HIO80 cells in passages p72 + 8 to p72 + 19 were used in this study and seeded at a concentration of 2 × 10^4 cells/mL. HIO80 in passage +10 was authenticated by short tandem repeats (STR) profiling performed by ATCC on 22 February 2019. Cells were grown in a humidified atmosphere containing 5% CO2 at 37°C. All cell lines were negative for mycoplasma infection which was periodically tested using MycoAlert^TM mycoplasma detection kit (Lonza, Basel, Switzerland).
The effect of ruthenium compounds on the proliferation of ovarian cancer cell lines COV362 and OVCAR-4 and the control cell line HIO80 was analyzed using the cell proliferation reagent alamarBlue HS (A50101; Thermo Fisher Scientific) following the manufacturer’s instructions.
Cells were seeded in 96-well plates in 100 µL of medium and allowed to adhere and grow for 24 h. […] Cisplatin and carboplatin purchased from Sigma–Aldrich GmbH (cat. number: PHR1624, lot: LRAB7778) and (cat. number: C2538, lot: MKCK1243) were dissolved in sterile water. Working solutions were prepared by a serial dilution of stock solutions with a culture medium. After the initial incubation, cells were treated with ruthenium complexes, cisplatin, and carboplatin. A range of final concentrations between 0.001 and 300 µM were used for ruthenium complexes and cisplatin, and between 0.001 µM and 1 mM for carboplatin. After 48 h of incubation, plates were incubated with 20 µL of alamarBlue. After 4 h absorbance was measured with a BioTek microplate spectrophotometer at 570 nm, with the reference wavelength set at 600 nm. First, the background value of a well containing the active substance without cells was subtracted, then the average values for duplicates/triplicates were calculated. The absorbance of the well containing only untreated cells was used as a normalization control. The half-maximal […] concentration (IC50) was determined for all ruthenium complexes with a growth-inhibiting effect on cells by constructing a dose-response curve (Graph Pad Prism, Version 8.0).

[2] = tested on: COV362 cells; assay: Cell migration assay (Ibidi culture inserts), COV362; assay type: cell-based, human; settings: 100 μM; for effect on cell migration (in words): 24 and 48 h
Method: Cell migration assay was performed using Ibidi® three-well culture inserts. The inserts were placed in six-well plates. In total, 70 µL of cell suspension was seeded in the inserts and allowed to adhere and grow for 24 h. When the cells formed a confluent monolayer, the inserts were carefully removed and the cells were washed two times with DPBS. Cells were treated with 100 μM (final concentration) of compounds 8, 9, cisplatin, and carboplatin in 2 ml of growth medium. Cells treated with a medium containing the same volume of sterile water or DMSO were used as the controls. Images of cell gaps were taken with Axio Scope A1 Polarized Light Microscope (Zeiss) at the time of treatment, 24 and 48 h after, and analyzed using ImageJ software.

| Structure (SMILES) | fold higher IC50 value on OVCAR-4 compared to COV362 [1] [fold] | IC50 [1] [µM] | effect on cell migration (in words) [2] | fold lower IC50 value on OVCAR-4 compared to COV362 [1] [fold] | cytotoxic effect in migration assay (in words) ([2]; after 48 h incubation) |
| --- | --- | --- | --- | --- | --- |
| Cc1ccc(C(C)C)cc1.[Cl-].[O-]c1c(I)cc(Cl)c2cccnc12.[Ru+2] [Compound 7] | 1.6 | 28.1 |  |  |  |
| C1N2CN3CN1CP(C2)C3.Cc1ccc(C(C)C)cc1.F[P-](F)(F)(F)(F)F.[O-]c1c(I)cc(Cl)c2cccnc12.[Ru+2] [Compound 8] | 2.6 | 97.5 | inhibited cell migration similarly to cisplatin |  |  |
| Cc1ccc(C(C)C)cc1.O=[N+]([O-])c1ccc([O][Ru][Cl])c2ncccc12 [Compound 9, (η ^6-p-Cymene) (nitroxolinato)chloridoruthenium (II)] |  | 14.4 | prevented migration | 1.5 | cytotoxic effect |
